Reference: US9351966B2, “Composition comprising a combination of omeprazole and lansoprazole, and a buffering agent, and methods of using same” (The Curators of the University of Missouri, priority 2008, dated 2016)

How the values were obtained:
[1] = cited from earlier work; for t1/2: Table 1, daily dose 15-160 mg as listed; for half-life of elimination, normal, mean: drug given alone; for mean plasma elimination half-life: healthy adults, clinical studies
[2] = clinical trials; Zegerid (omeprazole) and Prevacid (lansoprazole) package inserts; cited from earlier work
[3] = tested on: 2C19 and 3A4 isoforms of the Cytochrome P450 enzyme; settings: liver; cited from earlier work
[4] = rats; drug or its metabolites; cited from earlier work
[5] = tested on: Barrett's esophagus; settings: extended treatment (years), twice per day or more, with or without surgery; cited from earlier work
[6] = Cross-over study, blood draws: AUC and half-life of PPI; type: in vivo, human; settings: for prolongation factor of elimination half-life: omeprazole and lansoprazole administered together versus normal
Protocol: (§1) A study was performed as a cross-over design, with washout between doses. The subject received the test article after placing a Bravo pH probe in the stomach and verifying its placement with pH readings of less than 2. After a baseline evaluation, to ensure that the pH probe is in the correct place for reading gastric acid in the stomach, the subject has an intravenous access established and a baseline blood draw was taken to provide evidence of a lack of PPI in the blood at baseline. The subject received the one of three different formulations, and the time of administration was noted. Blood draws were taken at intervals to characterize the absorption, distribution and elimination phases of the test article. […] Continuous gastric pH recording was made utilizing the Bravo pH probe and radiofrequency receiver. Gastric pH values were recorded every 10 seconds.
as §1, with “eighteen” for “three”

[7] = tested on: intragastric acidity; settings: after a single dose of PPI (Day 1); 20 mg delayed release; cited from earlier work

In the case of `Cc1c(OCC(F)(F)F)ccnc1C[S@@+]([O-])c1nc2ccccc2[nH]1` [Dexlansoprazole], the t1/2 [1] is given as 1 to 1.6 h.

In the case of `COc1ccc2[nH]c([S+]([O-])Cc3ncc(C)c(OC)c3C)nc2n1` (stereo not shown) [Tentaoprazole, 5-methoxy-2-[[(4-methoxy-3,5-dimethyl-2-pyridyl)methyl]sulfinyl]imidazo[4,5-b]pyridine], the t1/2 [1] is listed as 6.8 to 8 h.

For `COc1ccnc(C[S+]([O-])c2nc3ccc(OC(F)F)cc3[nH]2)c1OC` (stereo not shown) [Pantoprazole], the t1/2 [1] is listed as 1.2 to 1.5 h.

For `Cc1c(OCC(F)(F)F)ccnc1C[S+]([O-])c1nc2ccccc2[nH]1` (stereo not shown) [Lansoprazole], the t1/2 [1] is listed as 1 to 1.5 h, the “half-life of elimination, normal, mean” value [1] is listed as “approximately 1.2 hrs” and the “mean plasma elimination half-life” value [1] is listed as “about 1.5 hours”. For the same compound, the “Adverse effect: Abdominal pain” value [2] was 2.1 % of patients, the “Adverse effect: Asthenia” value [2] was <1 % of patients and the “Adverse effect: Constipation” value [2] was 1.0 % of patients. The “Adverse effect: Diarrhea” value [2] was 3.8 % of patients, the “Adverse effect: Headache” value [2] was <1 % of patients and the “metabolism by Cytochrome P450 isoforms” value [3] was “approximately equal amounts by both the 2C19 and 3A4 isoforms”. The “excretion in breast milk” value [4] was “excreted in breast milk”, the “patients with reversal of Barrett's esophagus” value [5] was 3 of 123 and the half-life ([6]; human, blood, oral, omeprazole and lansoprazole together, e.g. 80 mg lansoprazole+80 mg omeprazole+1680 mg sodium bicarbonate, read-out: elimination half-life when administered together (converted)) was 3.7 h. For the same compound, the “prolongation factor of elimination half-life” value [6] was 300%.

For `COCCCOc1ccnc(C[S+]([O-])c2nc3ccccc3[nH]2)c1C` (stereo not shown) [Rabeprazole], the t1/2 [1] is listed as 0.8 to 1 h.

In the case of `COc1ccc2[nH]c([S+]([O-])Cc3ncc(C)c(OC)c3C)nc2c1` (stereo not shown) [Omeprazole, 5-methoxy-2-[[(4-methoxy-3,5-dimethyl-2-pyridinyl)methyl]sulfinyl]-1H benzimidazole], the t1/2 [1] is listed as 0.9 to 1.5 h, the “half-life of elimination, normal, mean” value [1] is listed as “approximately 0.95 hrs” and the “mean plasma elimination half-life” value [1] is listed as “less than 1 hours”. The “Adverse effect: Abdominal pain” value [2] was 5.2 % of patients, the “Adverse effect: Asthenia” value [2] was 1.3 % of patients and the “Adverse effect: Constipation” value [2] was 1.5 % of patients. For the same compound, the “Adverse effect: Diarrhea” value [2] was 3.7 % of patients, the “Adverse effect: Headache” value [2] was 2.9 % of patients and the “metabolism by Cytochrome P450 isoforms” value [3] was “mostly by the 2C19 isoform”. For the same compound, the “patients with reversal of Barrett's esophagus” value [5] was 3 of 123, the “prolongation factor of elimination half-life” value [6] was 200% and the “elimination half-life when administered together” value ([6]; omeprazole and lansoprazole together, e.g. 80 mg lansoprazole+80 mg omeprazole+1680 mg sodium bicarbonate) was 1.9 h. For the same compound, the “IGA-24Day 1” value [7] was 640 mmol·h/L.

In the case of `COc1ccc2nc([S@@+]([O-])Cc3ncc(C)c(OC)c3C)[nH]c2c1` [Esomerprazole], the t1/2 [1] is given as 1.1 to 1.6 h.
